US20060084789A1, “Immunotherapeutic and immunoprphylactic reagents” (priority 2002, published 2006)

How the values were obtained:
Type in all cases: cell-based, human
RGP-specific TCL = experiment: TCL proliferation assay (3H-thymidine incorporation, stimulation index); details: for Proliferative response, stimulation index: peptides 10 μg/ml; for T cell responses to Lol p 5 peptides: 21 TCL tested; for Lol p 1 peptides recognised by one or more TCL: 34 TCL tested, all recognised with the exception of the four named
Protocol: Generation of Short-Term RGP-Specific TCL
PBMC were cultured in 24-well plates (Costar, Mass., USA) at 2.5×10^6 cells/well with RGP extract at a concentration of 25 or 50 μg/ml in RPMI 1640 medium (Gibco BRL, NY, USA) supplemented with 2 mM GlutaMAX I (Gibco BRL), 0.05 mg/ml gentamicin (David Bull Laboratories, Mulgrave, Victoria, Australia) and 5% heat-inactivated hunan AB^+ serum (Sigma, Mo., USA) for 7 days at 37° C. in a 5% CO2 humidified incubator. At day 7, cells were washed once and restimulated in 24-well plates at 5×10^5 cells/well width 25 or 50 μg/ml of RGP extract in the presence of 5×10^5 cells/well irradiated (3000 rads) autologous PBMC as a source of antigen presenting cells (APC). At day 2 following restimulation, 10 U/ml of Lymphocult T-LF (LC; Biotest, Germany) was added as a source of IL-2 and at day 4, 1 ml of culture medium was removed and replaced with fresh medium and 10 U/ml of LC. […] In all experiments T cells were rested for 6 to 7 days after the last addition of antigen and APC before testing.
T cells (5×10^4/well) were cultured in 96-well U bottom plates with either RGP extract at concentrations ranging from 25 to 200 μg/ml, purified Lol p 1 (0.12 to 2 μg/ml) or Lol p 5 (0.1 to 10 μg/ml), or Lol p 1 or Lol p 5 peptides (10 μg/ml), or medium alone (to determine background levels of proliferation), in the presence of washed autologous irradiated (3000 rads) PBMC (5×10^4/well). […] Cultures were incubated for 3 days, pulsed for the last 16 hours with ^3H-thymidine (1 μCi/well) and harvested onto glass fibre filters. ^3H-thymidine incorporation was measured by liquid scintillation spectroscopy and the mean counts per minute (cpm) for triplicate cultures was determined. Responses were considered positive if the stimulation index (SI, cpm of antigen-stimulated T cells divided by cpm of unstimulated T cells) was ≧2.5. Where several concentrations of allergen were tested (i.e., RGP, Lol p 1 and Lol p 5), values corresponding to the highest proliferation are shown.

[1] = test system: IL-5 production by RGP-specific TCL; experiment: IL-5 detection in culture supernatants by sandwich ELISA; details: Lol p 1 peptides, supernatant at 48 h, UD undetectable, limit of detection 10 pg/ml
Protocol: (§1) Cytokine Detection in Culture Supernatants
(§2) Supernatants of triplicate cultures were harvested and pooled from T cell proliferation assay cultures at 48 hours for the detection of IL-5 and IFN-γ production by sandwich ELISA. Briefly white Maxisorp (NUNC, Roskilde, Denmark) ELISA plates were coated with capture mAb (anti-IL-5, Pharmingen, San Diego, Calif., USA; anti-IFN-γ, Endogen, Woburn, Mass. USA) overnight at 4° C. Plates were then washed and wells blocked with 1% Bovine Serum Albumin/PBS for 1 hour at room temperature. Following washing, test samples (neat) and serial dilutions of recombinant human IL-5 (Pharmingen, USA) or IFN-γ (Endogen, USA) (for the construction of standard curves) were added and incubated overnight at 4° C. Following washing, plates were incubated with biotinylated detecting mAb (anti-IL-5, Pharmingen, USA; […], Endogen, USA) for 1 hour at room temperature. Plates were then washed and incubated with streptavidin-peroxidase (Amersham, Piscataway, N.J., USA) for 30 minutes at room temperature. Following washing, a chemiluminescent substrate (Du Pont, Wilmington, Del., USA) was added to each well and plates read in a Lumicount microplate Glow Luminometer (Packard Instrument Company, Meriden, Conn., USA), 0.5 seconds/well, automatic sensitivity setting. Standard curve construction and determination of test sample cytokine levels were performed using Packard I-smart software. The limits of detection for IL-5 and IFN-γ were 10 pg/ml and 2 pg/ml respectively.

[2] = test system: IFN-γ production by RGP-specific TCL; experiment: IFN-γ detection in culture supernatants by sandwich ELISA; details: supernatant at 48 h, UD undetectable, limit of detection 2 pg/ml
Protocol: as §1, §2

[3] = Subject 4 TCL, Lol p 1 series (Table 3), RGP and Lol p 1 maximal response
[4] = Subject 15 TCL, Lol p 1 series (Table 3), RGP and Lol p 1 maximal response
[5] = Subject 19 TCL, Lol p 1 series (Table 3), RGP and Lol p 1 maximal response
[6] = Subject 15 TCL, Lol p 1 peptides
[7] = Subject 19 TCL, Lol p 1 peptides
[8] = Subject 11 TCL, Lol p 5 series (Table 4), RGP and Lol p 5 maximal response
[9] = Subject 27 TCL, Lol p 5 series (Table 4), RGP and Lol p 5 maximal response, † affinity purified Lol p 5
[10] = Subject 20 TCL, Lol p 5 series (Table 4), RGP and Lol p 5 maximal response
[11] = Subject 35 TCL, Lol p 5 series (Table 4), RGP and Lol p 5 maximal response
[12] = Subject 4 TCL, Lol p 5 series (Table 4), RGP and Lol p 5 maximal response
[13] = Subject 12 TCL, Lol p 5 series (Table 4), RGP and Lol p 5 maximal response

Lol p 1 peptide 1-20: synthetic 20-mer, amino acids 1-20 of Lol p 1A (SEQ ID NO:1) (IAKVPPGPNITAEYGDKWLD; Lolium perenne)
Proliferative response, stimulation index (RGP-specific TCL; Subject 24 TCL, Lol p 1 series (Table 3), RGP and Lol p 1 maximal response): 2.6 | IL-5, proliferation inducing peptides ([1]; Subject 74 TCL): 46.1 pg/mL

Lol p 1 peptide 136-155: synthetic 20-mer, amino acids 136-155 of Lol p 1A (SEQ ID NO:1) (RRVKCKYPDGTKPTFHVEKA; Lolium perenne)
Proliferative response, stimulation index (RGP-specific TCL; [3]): 2.5 | Proliferative response, stimulation index (RGP-specific TCL; Subject 14 TCL, Lol p 1 series (Table 3), RGP and Lol p 1 maximal response): 4.4 | IFN-γ, proliferation inducing peptides ([2]; Subject 14 TCL, Lol p 1 peptides): 106.4 pg/mL

GHAFGSMAKKGEEQNVRSAG (Lolium perenne) [Lol p 1 peptide 109-128]
Proliferative response, stimulation index (RGP-specific TCL; Subject 2 TCL, Lol p 1 series (Table 3), RGP and Lol p 1 maximal response): 12.9 | Proliferative response, stimulation index (RGP-specific TCL; Subject 3 TCL, Lol p 1 series (Table 3), RGP and Lol p 1 maximal response): 2.8 | Proliferative response, stimulation index (RGP-specific TCL; [4]): 7.1 | Proliferative response, stimulation index (RGP-specific TCL; Subject 16 TCL, Lol p 1 series (Table 3), RGP and Lol p 1 maximal response): 3.0 | Proliferative response, stimulation index (RGP-specific TCL; Subject 17 TCL, Lol p 1 series (Table 3), RGP and Lol p 1 maximal response): 2.7 | Proliferative response, stimulation index (RGP-specific TCL; [5]): 12.0 | IFN-γ, proliferation inducing peptides ([2]; Subject 3 TCL, Lol p 1 peptides): 32.1 pg/mL | IFN-γ, proliferation inducing peptides [2, 6]: 143.3 pg/mL | IFN-γ, proliferation inducing peptides ([2]; Subject 16 TCL, Lol p 1 peptides): 13.8 pg/mL | IFN-γ, proliferation inducing peptides [2, 7]: 8.0 pg/mL | IL-5, proliferation inducing peptides ([1]; Subject 15 TCL): 160.7 pg/mL

KPTGAGPKDNGGACGYKDVD (Lolium perenne) [Lol p 1 peptide 28-47]
Proliferative response, stimulation index (RGP-specific TCL; [3]): 4.1 | Proliferative response, stimulation index (RGP-specific TCL; Subject 11 TCL, Lol p 1 series (Table 3), RGP and Lol p 1 maximal response): 3.5 | Proliferative response, stimulation index (RGP-specific TCL; [4]): 7.6 | Proliferative response, stimulation index (RGP-specific TCL; [5]): 3.0 | IFN-γ, proliferation inducing peptides [2, 6]: 23.2 pg/mL | IFN-γ, proliferation inducing peptides [2, 7]: 5.2 pg/mL

AALTKAITAMTQAQKAGKPA (Lolium perenne) [Lol p 5 peptide 226-245]
Proliferative response, stimulation index (RGP-specific TCL; Subject 2 TCL, Lol p 5 series (Table 4), RGP and Lol p 5 maximal response): 3.3 | Proliferative response, stimulation index (RGP-specific TCL; [8]): 3.5 | Proliferative response, stimulation index (RGP-specific TCL; Subject 13 TCL, Lol p 5 series (Table 4), RGP and Lol p 5 maximal response): 2.0 | Proliferative response, stimulation index (RGP-specific TCL; [9]): 7.1 | IFN-γ, proliferation inducing peptides ([2]; Subject 2 TCL, Lol p 5 peptides): 292.0 pg/mL

Lol p 5 peptide 82-101: synthetic 20-mer, amino acids 82-101 of Lol p 5A (SEQ ID NO:2) (GLIPKLDTAYDVAYKAAEGA; Lolium perenne)
T cell responses to Lol p 5 peptides (RGP-specific TCL): nor were T cell responses detected

Lol p 1 peptide 163-182: synthetic 20-mer, amino acids 163-182 of Lol p 1A (SEQ ID NO:1) (ILVKYVDGDGDVVAVDIKEK; Lolium perenne)
Lol p 1 peptides recognised by one or more TCL (RGP-specific TCL): exception | Proliferative response, stimulation index (RGP-specific TCL; Subject 23 TCL, Lol p 1 series (Table 3), RGP and Lol p 1 maximal response): 4.2

PEVKYAVFEAALTKAITAMT (Lolium perenne) [Lol p 5 peptide 217-236]
Proliferative response, stimulation index (RGP-specific TCL; [8]): 5.4 | Proliferative response, stimulation index (RGP-specific TCL; [10]): 4.5 | Proliferative response, stimulation index (RGP-specific TCL; [9]): 9.5 | Proliferative response, stimulation index (RGP-specific TCL; [11]): 3.5 | Proliferative response, stimulation index (RGP-specific TCL; Subject 36 TCL, Lol p 5 series (Table 4), RGP and Lol p 5 maximal response): 3.5 | Proliferative response, stimulation index (RGP-specific TCL; Subject 37 TCL, Lol p 5 series (Table 4), RGP and Lol p 5 maximal response): 11.0

Lol p 1 peptide 55-74: synthetic 20-mer, amino acids 55-74 of Lol p 1A (SEQ ID NO:1) (TGCGNTPIFKDGRGCGSCFE; Lolium perenne)
Lol p 1 peptides recognised by one or more TCL (RGP-specific TCL): exception

Lol p 5 peptide 100-119: synthetic 20-mer, amino acids 100-119 of Lol p 5A (SEQ ID NO:2) (GATPEAKYDAFVTALTEALR; Lolium perenne)
Proliferative response, stimulation index (RGP-specific TCL; [12]): 3.8 | Proliferative response, stimulation index (RGP-specific TCL; [8]): 10.0 | Proliferative response, stimulation index (RGP-specific TCL; [13]): 7.5 | Proliferative response, stimulation index (RGP-specific TCL; [11]): 2.5

KFTVFESAFNKALNECTGGA (Lolium perenne) [Lol p 5 peptide 172-191]
Proliferative response, stimulation index (RGP-specific TCL; [12]): 2.7 | Proliferative response, stimulation index (RGP-specific TCL; [13]): 2.5 | Proliferative response, stimulation index (RGP-specific TCL; [10]): 3.0

Lol p 5 peptide 127-146: synthetic 20-mer, amino acids 127-146 of Lol p 5A (SEQ ID NO:2) (VHAVKPATEEVPAAKIPTGE; Lolium perenne)
T cell responses to Lol p 5 peptides (RGP-specific TCL): nor were T cell responses detected

Lol p 1 peptide 172-191: synthetic 20-mer, amino acids 172-191 of Lol p 1A (SEQ ID NO:1) (GDVVAVDIKEKGKDKWIELK; Lolium perenne)
Proliferative response, stimulation index (RGP-specific TCL; Subject 9 TCL, Lol p 1 series (Table 3), RGP and Lol p 1 maximal response): 2.5

Lol p 1 peptide 199-218: synthetic 20-mer, amino acids 199-218 of Lol p 1A (SEQ ID NO:1) (RIDTPDKLTGPFTVRYTTEG; Lolium perenne)
Lol p 1 peptides recognised by one or more TCL (RGP-specific TCL): exception

Lol p 1 peptide 145-164: synthetic 20-mer, amino acids 145-164 of Lol p 1A (SEQ ID NO:1) (GTKPTFHVEKASNPNYLAIL; Lolium perenne)
Proliferative response, stimulation index (RGP-specific TCL; Subject 12 TCL, Lol p 1 series (Table 3), RGP and Lol p 1 maximal response): 4.5
